Measured values from patent publication EP4725957A1, “GROUP OF CYCLIC ALKALINE LIPOPEPTIDE COMPOUNDS, AND PREPARATION METHOD THEREFOR AND USE THEREOF” (Institute of Medicinal Biotechnology, Chinese Academy of …, priority 2023, dated 2024).
Values after ≈ are worked out from the molar mass of the structure shown. Where two headings read alike, the source gives them in different places. Bridge positions count the residues as written; N and C are the ends. Square brackets hold non-standard residues; d marks the D form. Peptide text beside a SMILES is read from it. * marks the point of attachment. Dab(CH2SO3H) = N[C@@H](CCNCS(=O)(=O)O)C(=O)O; Heptanoyl(6-Me) = CC(C)CCCCC(=O)*; Nonanoyl = CCCCCCCCC(=O)*; Heptanoyl = CCCCCCC(=O)*; Octanoyl = CCCCCCCC(=O)*; Orn = NCCC[C@H](N)C(=O)O; dDap = NC[C@@H](N)C(=O)O; Dab = NCC[C@H](N)C(=O)O; Dap = NC[C@H](N)C(=O)O

Legend:
Type in all cases: cell-based
[1] = Nephrotoxicity assay: in vitro cytotoxicity of HK-2 cells by CCK-8 assay; settings: human, HK-2 cells (human renal), 72 h incubation with drug-containing medium
Experimental: In vitro cytotoxicity detection of HK-2 cells was performed by the CCK-8 assay.
The culture medium for human renal HK-2 cells was a complete RPMI-1640 medium (Invitrogen) supplemented with 10% fetal bovine serum (FBS, Gibco). The cryopreservation solution was composed of 90% FBS and 10% dimethyl sulfoxide (DMSO), and the cells were preserved long-term in liquid nitrogen. Cells were cultured in a sterile incubator with a humidified atmosphere containing 5% CO2 at 37°C. When the cell density reached 70%-80%, cell digestion and subculture were conducted. The cyclic lipopeptide compounds prepared in Examples 1-120 were weighed and dissolved in sterile water to prepare a mother solution with a concentration of 1 mg/mL. Drug-containing culture media were then formulated, with the final concentrations set as 500, 250, 200, 100, 50, 25, and 12.5 µg/mL, respectively. Cells were adjusted to a density of 5 × 10^4 cells/mL and seeded into 96-well plates, with 100 µL of cell suspension added to each well. After stable incubation for 24 h, the original medium was replaced with the prepared drug-containing medium, and the plates were incubated in the incubator for an additional 72 h. The medium was gently aspirated, and 100 µL of blank medium containing 10% CCK-8 was added to each well. After incubation in the incubator for 3 h, the optical density (OD) values at 450 nm were measured using a BIOTEK microplate reader. The experiment was repeated three times. For each replicate, polymyxin B was set as the positive drug, and a drug-free blank group was established as the control. The cell viability (%) was calculated by the formula: Cell viability (%) = [(OD of drug-treated group - OD of zero-setting) / (OD of drug-free group - OD of zero-setting)] × 100%. The half-maximal inhibitory concentration (IC50) values were calculated through logarithmic regression analysis.
The cells used for the nephrotoxicity assay were obtained from the ATCC ( American Type Culture Collection). The Cell Counting Kit-8 (CCK-8) used in the assay was supplied by Beyotime Biotechnology Co., Ltd.

[2] = test system: Escherichia coli ATCC BAA-2340 (KPC)
Experimental: (§1) The minimal inhibitory concentration (MIC) was determined by the broth microdilution method according to the recommended procedures of the Clinical and Laboratory Standards Institute (CLSI).
(§2) An appropriate amount of the cyclic lipopeptide compounds prepared in Examples 1-120 and the reference standards were weighed and dissolved in sterile pure water. An appropriate volume of the mother solution was subjected to ten-fold dilution with sterile Mueller-Hinton (MH) broth to a concentration of 0.256 mg/mL. Half of the drug solution was aliquoted into 96-well reagent reservoirs, while the other half was subjected to two-fold serial dilution with sterile MH broth before being transferred into deep-well reagent reservoirs. The above steps were repeated, so that the drug concentrations in the reagent reservoirs were adjusted to 128, 64, 32, 16, 8, 4, 2, 1, 0.5, 0.25, 0.125 and 0.06 mg/L in sequence, and all solutions were prepared and used immediately. Several colonies were picked from agar plates cultured for 18-24 h and directly suspended in sterile normal saline, and the concentration of the bacterial suspension was adjusted to 0.5 McFarland units. The calibrated bacterial suspension was diluted with MH broth to a concentration of (4-8) × 10^5 colony-forming units per milliliter (CFU/mL) and prepared and used immediately. A volume of 100 µL of the aforementioned compounds of the present disclosure (e.g., the compounds prepared in the examples) and reference solutions at different concentrations was separately pipetted into wells 1 to 12 of sterile 96-well polystyrene plates, and an additional 100 µL of the aforementioned inoculum was added to each well. The final concentrations of the samples in the wells were adjusted to 64, 32, 16, 8, 4, 2, 1, 0.5, 0.25, 0.125, 0.06 and 0.03 mg/L, respectively, and the final concentration of the inoculum in each well was (2-4) × 10^5 CFU/mL. Additional growth control wells were set up, each containing 100 µL of the inoculum and 100 µL of sterile MH broth. The test substances and inocula in all wells were mixed thoroughly and then sealed. The inoculated 96-well plates were incubated in an incubator at 35-37°C for 16-20 h.
(§3) The strains used for the antibacterial activity assay were obtained from the American Type Culture Collection (ATCC) and clinical isolates.
(§4) The strains employed for the antibacterial activity assay included Escherichia coli ATCC BAA-2523, ATCC BAA-2340 (KPC), Klebsiella pneumoniae KPN+19-15, ATCC BAA-1705 (KPC), Pseudomonas aeruginosa PAE19-3, ATCC 27853, Acinetobacter baumannii ABA19-1, and NCTC 13304 (OXA-27).

[3] = test system: Pseudomonas aeruginosa PAE19-3
Experimental: as §1, §2, §3, §4

[4] = test system: Pseudomonas aeruginosa ATCC 27853
Experimental: as §1, §2, §3, §4

[5] = test system: Escherichia coli ATCC BAA-2523
Experimental: as §1, §2, §3, §4

[6] = test system: Acinetobacter baumannii NCTC 13304 (OXA-27)
Experimental: as §1, §2, §3, §4

[7] = test system: Klebsiella pneumoniae ATCC BAA-1705 (KPC)
Experimental: as §1, §2, §3, §4

[8] = test system: Acinetobacter baumannii ABA19-1
Experimental: as §1, §2, §3, §4

[9] = test system: Klebsiella pneumoniae KPN+19-15
Experimental: as §1, §2, §3, §4

Structure (SMILES)	IC50 at 72 h [1] [µg/mL]	MIC ([2]; ATCC BAA-2340) [µg/mL]	MIC ([3]; PAE19-3) [µg/mL]	MIC ([4]; ATCC 27853) [µg/mL]	MIC ([5]; ATCC BAA-2523) [µg/mL]	MIC ([6]; NCTC 13304) [µg/mL]	MIC ([7]; ATCC BAA-1705) [µg/mL]	MIC ([8]; ABA19-1) [µg/mL]	MIC ([9]; KPN+19-15) [µg/mL]	MIC ([2]; Escherichia coli ATCC BAA-2340 (KPC)) [µg/mL]	MIC ([3]; Pseudomonas aeruginosa PAE19-3) [µg/mL]	MIC ([4]; Pseudomonas aeruginosa ATCC27853) [µg/mL]	MIC ([5]; Escherichia coli ATCC BAA-2523) [µg/mL]	MIC ([6]; Acinetobacter baumannii NCTC 13304 (OXA-27)) [µg/mL]	MIC ([7]; Klebsiella pneumoniae ATCC BAA-1705 (KPC)) [µg/mL]	MIC ([8]; Acinetobacter baumannii ABA19-1) [µg/mL]	MIC ([9]; Klebsiella pneumoniae KPN 19-15) [µg/mL]
CCCCCCC(=O)N[C@@H](CCN)C(=O)N[C@H](C(=O)N[C@H](CO)C(=O)N[C@H]1CCNC(=O)[C@H]([C@@H](C)O)NC(=O)[C@H](CCN)NC(=O)[C@H](CCCN)NC(=O)[C@H]([C@@H](C)O)NC(=O)[C@@H](Cc2ccccc2)NC(=O)[C@H](CCN)NC1=O)[C@@H](C)O [Compound 79, Heptanoyl-Dab-Thr-D-Ser-ring(4-10)[Dab-Dab-D-Phe-Thr-Orn-Dab-Thr]] (Heptanoyl-[Dab]T[dS][Dab][Dab][dF]T[Orn][Dab]T; lactam 4-C)	> 500	0.03 (≈ 0.0258 µM)	64 (≈ 55 µM)	>64	0.03 (≈ 0.0258 µM)	0.03 (≈ 0.0258 µM)	0.25 (≈ 0.215 µM)	0.06 (≈ 0.0515 µM)	0.5 (≈ 0.429 µM)								
CCCCCCCCC(=O)N[C@@H](CCN)C(=O)N[C@H](C(=O)N[C@@H](CN)C(=O)N[C@H]1CCNC(=O)[C@H]([C@@H](C)O)NC(=O)[C@H](CCN)NC(=O)[C@H](CCN)NC(=O)[C@H]([C@@H](C)O)NC(=O)[C@@H](Cc2ccccc2)NC(=O)[C@H](CCN)NC1=O)[C@@H](C)O [Compound 10, Nonanoyl-Dab-Thr-Dap-ring(4-10)[Dab-Dab-D-Phe-Thr-Dab-Dab-Thr]] (Nonanoyl-[Dab]T[Dap][Dab][Dab][dF]T[Dab][Dab]T; lactam 4-C)	350 ± 30.7 (≈ 297 µM)	0.06 (≈ 0.051 µM)	0.5 (≈ 0.425 µM)	0.25 (≈ 0.212 µM)	0.06 (≈ 0.051 µM)	0.06 (≈ 0.051 µM)	0.06 (≈ 0.051 µM)	0.06 (≈ 0.051 µM)	0.06 (≈ 0.051 µM)								
CC(C)CCCCC(=O)N[C@@H](CCN)C(=O)N[C@H](C(=O)N[C@H](CN)C(=O)N[C@H]1CCNC(=O)[C@H]([C@@H](C)O)NC(=O)[C@H](CCN)NC(=O)[C@H](CCN)NC(=O)[C@H]([C@@H](C)O)NC(=O)[C@H](Cc2ccccc2)NC(=O)[C@H](CCN)NC1=O)[C@@H](C)O [Compound 102, 6-methylheptanoyl-Dab-Thr-D-Dap-ring(4-10)[Dab-Dab-Phe-Thr-Dab-Dab-Thr]] ({Heptanoyl(6-Me)}-[Dab]T[dDap][Dab][Dab]FT[Dab][Dab]T; lactam 4-C)	> 500									>64	>64	>64	>64	>64	>64	>64	>64
CC(C)CCCCC(=O)N[C@@H](CCNCS(=O)(=O)O)C(=O)N[C@H](C(=O)N[C@H](CO)C(=O)N[C@H]1CCNC(=O)[C@H]([C@@H](C)O)NC(=O)[C@H](CCN)NC(=O)[C@H](CCN)NC(=O)[C@H]([C@@H](C)O)NC(=O)[C@@H](Cc2ccccc2)NC(=O)[C@H](CCN)NC1=O)[C@@H](C)O [Compound 108, 6-methylheptanoyl-Dab(CH2SO3H)-Thr-D-Ser-ring(4-10)[Dab-Dab-D-Phe-Thr-Dab-Dab-Thr]] ({Heptanoyl(6-Me)}-[Dab(CH2SO3H)]T[dS][Dab][Dab][dF]T[Dab][Dab]T; lactam 4-C)	> 500	0.06 (≈ 0.0477 µM)	0.5 (≈ 0.397 µM)	0.25 (≈ 0.199 µM)	0.06 (≈ 0.0477 µM)	0.06 (≈ 0.0477 µM)	0.125 (≈ 0.0993 µM)	0.25 (≈ 0.199 µM)	0.125 (≈ 0.0993 µM)								
CC(C)CCCCC(=O)N[C@@H](CCN)C(=O)N[C@H](C(=O)N[C@H](CO)C(=O)N[C@H]1CCNC(=O)[C@H]([C@@H](C)O)NC(=O)[C@H](CCN)NC(=O)[C@H](CCN)NC(=O)[C@H]([C@@H](C)O)NC(=O)[C@@H](Cc2ccccc2)NC(=O)[C@H](CCNCS(=O)(=O)O)NC1=O)[C@@H](C)O [Compound 109, 6-methylheptanoyl-Dab-Thr-D-Ser-ring(4-10)[Dab-Dab(CH2SO3H)-D-Phe-Thr-Dab-Dab-Thr]] ({Heptanoyl(6-Me)}-[Dab]T[dS][Dab][Dab(CH2SO3H)][dF]T[Dab][Dab]T; lactam 4-C)	> 500	0.06 (≈ 0.0477 µM)	0.5 (≈ 0.397 µM)	0.25 (≈ 0.199 µM)	0.06 (≈ 0.0477 µM)	0.06 (≈ 0.0477 µM)	0.125 (≈ 0.0993 µM)	0.25 (≈ 0.199 µM)	0.125 (≈ 0.0993 µM)								
CCCCCCCCC(=O)N[C@@H](CCCN)C(=O)N[C@H](C(=O)N[C@H](CO)C(=O)N[C@H]1CCNC(=O)[C@H]([C@@H](C)O)NC(=O)[C@H](CCN)NC(=O)[C@H](CCN)NC(=O)[C@H]([C@@H](C)O)NC(=O)[C@@H](Cc2ccccc2)NC(=O)[C@H](CCN)NC1=O)[C@@H](C)O [Compound 60, Nonanoyl-Orn-Thr-D-Ser-ring(4-10)[Dab-Dab-D-Phe-Thr-Dab-Dab-Thr]] (Nonanoyl-[Orn]T[dS][Dab][Dab][dF]T[Dab][Dab]T; lactam 4-C)	281 ± 9.5 (≈ 235 µM)	0.25 (≈ 0.21 µM)	8 (≈ 6.71 µM)	64 (≈ 53.7 µM)	0.25 (≈ 0.21 µM)	0.25 (≈ 0.21 µM)	0.25 (≈ 0.21 µM)	0.25 (≈ 0.21 µM)	0.5 (≈ 0.419 µM)								
CCCCCCCC(=O)N[C@@H](CN)C(=O)N[C@H](C(=O)N[C@H](CO)C(=O)N[C@H]1CCNC(=O)[C@H]([C@@H](C)O)NC(=O)[C@H](CCN)NC(=O)[C@H](CCN)NC(=O)[C@H]([C@@H](C)O)NC(=O)[C@@H](Cc2ccccc2)NC(=O)[C@H](CCN)NC1=O)[C@@H](C)O [Compound 53, Octanoyl-Dap-Thr-D-Ser-ring(4-10)[Dab-Dab-D-Phe-Thr-Dab-Dab-Thr]] (Octanoyl-[Dap]T[dS][Dab][Dab][dF]T[Dab][Dab]T; lactam 4-C)	> 500	≤0.03	4 (≈ 3.48 µM)	64 (≈ 55.6 µM)	≤0.03	0.25 (≈ 0.217 µM)	0.25 (≈ 0.217 µM)	0.25 (≈ 0.217 µM)	0.5 (≈ 0.435 µM)								
